Test results as given in PubChem BioAssay (NCI).
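Grown in 96-well plates, cells were treated for 48 hours with each compound at five concentrations. Insufficient inhibition: endpoint recorded as highest concentration tested. TGI is the concentration that stops growth completely.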

How the values were obtained:
Experiment in all cases: NCI anticancer screen, dose series, 48 h
SNB-78 CNS = system: SNB-78 CNS
NCI-H23 lung = system: NCI-H23 lung
UACC-62 melanoma = system: UACC-62 melanoma
HOP-62 NSCLC = system: HOP-62 NSCLC
SK-MEL-28 melanoma = system: SK-MEL-28 melanoma
SNB-75 CNS = system: SNB-75 CNS
SK-OV-3 ovarian = system: SK-OV-3 ovarian
DLD-1 colon = system: DLD-1 colon
HCT-116 colon = system: HCT-116 colon
DMS 273 small cell lung = system: DMS 273 small cell lung
HCC-2998 colon = system: HCC-2998 colon
HL-60(TB) leukemia = system: HL-60(TB) leukemia
MOLT-4 leukemia = system: MOLT-4 leukemia
SR leukemia = system: SR leukemia
HOP-92 NSCLC = system: HOP-92 NSCLC
M14 melanoma = system: M14 melanoma
NCI-H522 lung = system: NCI-H522 lung
SK-MEL-2 melanoma = system: SK-MEL-2 melanoma
CCRF-CEM leukemia = system: CCRF-CEM leukemia
LXFL 529 NSCLC = system: LXFL 529 NSCLC
NCI-H460 lung = system: NCI-H460 lung
786-0 renal = system: 786-0 renal
COLO 205 colon = system: COLO 205 colon
IGROV1 ovarian = system: IGROV1 ovarian
DMS 114 small cell lung = system: DMS 114 small cell lung
RXF-631 renal = system: RXF-631 renal
ACHN renal = system: ACHN renal
SN12C renal = system: SN12C renal
SF-268 CNS = system: SF-268 CNS
UO-31 renal = system: UO-31 renal
M19-MEL melanoma = system: M19-MEL melanoma
MALME-3M melanoma = system: MALME-3M melanoma
CAKI-1 renal = system: CAKI-1 renal
NCI-H226 lung = system: NCI-H226 lung
K-562 leukemia = system: K-562 leukemia
SF-539 CNS = system: SF-539 CNS
OVCAR-4 ovarian = system: OVCAR-4 ovarian
RPMI-8226 leukemia = system: RPMI-8226 leukemia
OVCAR-8 ovarian = system: OVCAR-8 ovarian
OVCAR-3 ovarian = system: OVCAR-3 ovarian
KM12 colon = system: KM12 colon
SF-295 CNS = system: SF-295 CNS
LOX IMVI melanoma = system: LOX IMVI melanoma
HCT-15 colon = system: HCT-15 colon
SNB-19 CNS = system: SNB-19 CNS
KM20L2 colon = system: KM20L2 colon
HT29 colon = system: HT29 colon
UACC-257 melanoma = system: UACC-257 melanoma
A549 NSCLC = system: A549 NSCLC
XF 498 CNS = system: XF 498 CNS
SW-620 colon = system: SW-620 colon
DU-145 prostate = system: DU-145 prostate
RXF 393 renal = system: RXF 393 renal
TK-10 renal = system: TK-10 renal
U251 CNS = system: U251 CNS
SK-MEL-5 melanoma = system: SK-MEL-5 melanoma
HOP-18 NSCLC = system: HOP-18 NSCLC
OVCAR-5 ovarian = system: OVCAR-5 ovarian
A498 renal = system: A498 renal

In the case of CCCN(CCC)C1CC(n2cc(C)c(=O)[nH]c2=O)OC1CO (configuration not stated), the TGI (SNB-78 CNS) is reported as greater than 100 µM, the TGI (NCI-H23 lung) is reported as greater than 100 µM and the TGI (UACC-62 melanoma) is reported as greater than 100 µM. The TGI (HOP-62 NSCLC) was greater than 100 µM, the TGI (SK-MEL-28 melanoma) was greater than 100 µM and the TGI (SNB-75 CNS) was greater than 100 µM. It also gave a TGI (SK-OV-3 ovarian) greater than 100 µM, a TGI (DLD-1 colon) greater than 100 µM and a TGI (HCT-116 colon) greater than 100 µM. It also gave a TGI (DMS 273 small cell lung) greater than 100 µM, a TGI (HCC-2998 colon) greater than 100 µM and a TGI (HL-60(TB) leukemia) greater than 100 µM. The TGI (MOLT-4 leukemia) was greater than 100 µM, the TGI (SR leukemia) was greater than 100 µM and the TGI (HOP-92 NSCLC) was greater than 100 µM. For the same compound, the TGI (M14 melanoma) was greater than 100 µM, the TGI (NCI-H522 lung) was greater than 100 µM and the TGI (SK-MEL-2 melanoma) was greater than 100 µM. It also gave a TGI (CCRF-CEM leukemia) greater than 100 µM, a TGI (LXFL 529 NSCLC) greater than 100 µM and a TGI (NCI-H460 lung) greater than 100 µM. For the same compound, the TGI (786-0 renal) was greater than 100 µM, the TGI (COLO 205 colon) was greater than 100 µM and the TGI (IGROV1 ovarian) was greater than 100 µM. It also gave a TGI (DMS 114 small cell lung) greater than 100 µM, a TGI (RXF-631 renal) greater than 100 µM and a TGI (ACHN renal) greater than 100 µM. For the same compound, the TGI (SN12C renal) was greater than 100 µM, the TGI (SF-268 CNS) was greater than 100 µM and the TGI (UO-31 renal) was greater than 100 µM. It also gave a TGI (M19-MEL melanoma) greater than 100 µM, a TGI (MALME-3M melanoma) greater than 100 µM and a TGI (CAKI-1 renal) greater than 100 µM. It also gave a TGI (NCI-H226 lung) greater than 100 µM, a TGI (K-562 leukemia) greater than 100 µM and a TGI (SF-539 CNS) greater than 100 µM. For the same compound, the TGI (OVCAR-4 ovarian) was greater than 100 µM and the TGI (RPMI-8226 leukemia) was greater than 100 µM.
COC(=O)C1=C(C(=O)OC)C23CC4CCC2(C(=O)C1O3)C4(C)C (configuration not stated) gave a TGI (OVCAR-8 ovarian) greater than 100 µM, a TGI (NCI-H23 lung) greater than 100 µM and a TGI (UACC-62 melanoma) greater than 100 µM. It also gave a TGI (OVCAR-3 ovarian) greater than 100 µM, a TGI (KM12 colon) greater than 100 µM and a TGI (SK-MEL-28 melanoma) greater than 100 µM. The TGI (SF-295 CNS) was greater than 100 µM, the TGI (SNB-75 CNS) was greater than 100 µM and the TGI (LOX IMVI melanoma) was greater than 100 µM. For the same compound, the TGI (HCT-15 colon) was greater than 100 µM, the TGI (SNB-19 CNS) was greater than 100 µM and the TGI (KM20L2 colon) was greater than 100 µM. It also gave a TGI (HT29 colon) greater than 100 µM, a TGI (SK-OV-3 ovarian) greater than 100 µM and a TGI (DLD-1 colon) greater than 100 µM. The TGI (UACC-257 melanoma) was greater than 100 µM, the TGI (HCT-116 colon) was greater than 100 µM and the TGI (HCC-2998 colon) was greater than 100 µM. It also gave a TGI (A549 NSCLC) greater than 100 µM, a TGI (HL-60(TB) leukemia) of 52.6 µM and a TGI (MOLT-4 leukemia) greater than 100 µM. It also gave a TGI (XF 498 CNS) greater than 100 µM, a TGI (SW-620 colon) greater than 100 µM and a TGI (SR leukemia) greater than 100 µM. It also gave a TGI (HOP-92 NSCLC) greater than 100 µM, a TGI (M14 melanoma) greater than 100 µM and a TGI (NCI-H522 lung) of 48.8 µM. The TGI (SK-MEL-2 melanoma) was greater than 100 µM, the TGI (DU-145 prostate) was greater than 100 µM and the TGI (CCRF-CEM leukemia) was 66.7 µM. The TGI (RXF 393 renal) was greater than 100 µM, the TGI (LXFL 529 NSCLC) was greater than 100 µM and the TGI (NCI-H460 lung) was greater than 100 µM. The TGI (TK-10 renal) was greater than 100 µM, the TGI (786-0 renal) was greater than 100 µM and the TGI (COLO 205 colon) was greater than 100 µM. For the same compound, the TGI (IGROV1 ovarian) was greater than 100 µM, the TGI (U251 CNS) was greater than 100 µM and the TGI (SK-MEL-5 melanoma) was greater than 100 µM. It also gave a TGI (ACHN renal) greater than 100 µM, a TGI (SN12C renal) greater than 100 µM and a TGI (HOP-18 NSCLC) greater than 100 µM. For the same compound, the TGI (SF-268 CNS) was greater than 100 µM, the TGI (UO-31 renal) was greater than 100 µM and the TGI (M19-MEL melanoma) was greater than 100 µM. The TGI (MALME-3M melanoma) was greater than 100 µM, the TGI (CAKI-1 renal) was greater than 100 µM and the TGI (NCI-H226 lung) was greater than 100 µM. It also gave a TGI (K-562 leukemia) greater than 100 µM, a TGI (OVCAR-5 ovarian) greater than 100 µM and a TGI (SF-539 CNS) greater than 100 µM. For the same compound, the TGI (A498 renal) was greater than 100 µM, the TGI (OVCAR-4 ovarian) was greater than 100 µM and the TGI (RPMI-8226 leukemia) was greater than 100 µM.
